The record followed here is ChEMBL document CHEMBL2074156, “Inhibition of P-glycoprotein activity and reversal of multidrug resistance in vitro by rosemary extract” (Eur J Cancer, 1999).

This data set addresses ATP-dependent translocase ABCB1 (Homo sapiens, UniProt P08183). The experiment in a line: TP_TRANSPORTER: inhibition of Doxorubicin and Vinblastine efflux in drug-resistant MCF-7 cells. In kind it is functional, cell-based. The note with it: mcf7.

Sequence of ATP-dependent translocase ABCB1 (P08183 whole entry): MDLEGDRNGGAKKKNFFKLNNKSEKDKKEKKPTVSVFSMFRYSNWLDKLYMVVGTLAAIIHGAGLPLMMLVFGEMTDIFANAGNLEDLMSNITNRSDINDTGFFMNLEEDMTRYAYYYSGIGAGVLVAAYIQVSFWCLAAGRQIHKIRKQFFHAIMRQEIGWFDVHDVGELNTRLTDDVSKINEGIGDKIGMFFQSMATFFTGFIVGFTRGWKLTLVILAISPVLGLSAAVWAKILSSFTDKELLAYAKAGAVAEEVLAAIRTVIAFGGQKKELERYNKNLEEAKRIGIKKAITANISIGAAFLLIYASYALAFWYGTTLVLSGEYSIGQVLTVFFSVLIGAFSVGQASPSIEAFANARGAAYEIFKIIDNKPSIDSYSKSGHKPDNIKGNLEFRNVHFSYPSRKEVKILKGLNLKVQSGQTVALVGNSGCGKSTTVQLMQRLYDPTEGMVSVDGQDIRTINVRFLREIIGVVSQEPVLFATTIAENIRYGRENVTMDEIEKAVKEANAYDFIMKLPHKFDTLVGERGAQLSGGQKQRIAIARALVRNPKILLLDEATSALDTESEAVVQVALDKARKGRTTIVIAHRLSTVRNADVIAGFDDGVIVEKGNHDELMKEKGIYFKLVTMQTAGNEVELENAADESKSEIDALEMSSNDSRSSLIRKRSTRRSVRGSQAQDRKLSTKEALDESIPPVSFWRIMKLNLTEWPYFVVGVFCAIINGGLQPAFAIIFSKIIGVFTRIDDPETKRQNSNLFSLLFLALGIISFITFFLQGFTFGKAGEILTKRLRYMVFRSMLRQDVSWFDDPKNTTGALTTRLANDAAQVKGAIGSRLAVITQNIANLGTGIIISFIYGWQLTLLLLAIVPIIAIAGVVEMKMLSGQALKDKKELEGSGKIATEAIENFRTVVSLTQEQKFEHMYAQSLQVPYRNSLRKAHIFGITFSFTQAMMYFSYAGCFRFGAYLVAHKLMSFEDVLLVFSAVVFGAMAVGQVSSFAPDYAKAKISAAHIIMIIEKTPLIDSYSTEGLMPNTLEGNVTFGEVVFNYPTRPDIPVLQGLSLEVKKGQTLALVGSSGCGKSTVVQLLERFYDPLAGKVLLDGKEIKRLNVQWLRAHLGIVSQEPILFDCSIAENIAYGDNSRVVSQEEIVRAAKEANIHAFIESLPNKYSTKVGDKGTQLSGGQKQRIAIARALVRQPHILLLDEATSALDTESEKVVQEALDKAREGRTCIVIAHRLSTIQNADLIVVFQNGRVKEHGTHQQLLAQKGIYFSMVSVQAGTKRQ

Take ROSEMARY EXTRACT: the Activity entry was “inhibitor [+]”.
